According to ChEMBL document CHEMBL6127119 (J Med Chem, 2024):
≈ marks a conversion by molar mass, not a printed value.

Assays:
Type in all cases: functional
Details in all cases: time 16-24 hrs
Enterococcus faecium [1] = assay: Antibacterial activity against vancomycin-resistant Enterococcus faecium harboring VanB phenotype incubated for 16 to 24 hrs by CLSI based broth microdilution method
Enterococcus faecium [2] = assay: Antibacterial activity against vancomycin-resistant Enterococcus faecium harboring VanA phenotype incubated for 16 to 24 hrs by CLSI based broth microdilution method
Escherichia coli = assay: Antibacterial activity against Escherichia coli AB1157 incubated for 16 to 24 hrs by CLSI based broth microdilution method
Staphylococcus aureus [3] = assay: Antibacterial activity against methicillin-susceptible Staphylococcus aureus incubated for 16 to 24 hrs by CLSI based broth microdilution method
Enterococcus faecium [4] = assay: Antibacterial activity against vancomycin-resistant Enterococcus faecium harboring VanM phenotype incubated for 16 to 24 hrs by CLSI based broth microdilution method
Staphylococcus aureus [5] = assay: Antibacterial activity against vancomycin-intermediate Staphylococcus aureus incubated for 16 to 24 hrs by CLSI based broth microdilution method
Acinetobacter baumannii = assay: Antibacterial activity against Carbapenem-resistant Acinetobacter baumannii clinical isolate incubated for 16 to 24 hrs by CLSI based broth microdilution method
Klebsiella pneumoniae = assay: Antibacterial activity against Klebsiella pneumoniae clinical isolate incubated for 16 to 24 hrs by CLSI based broth microdilution method

Structure (SMILES)	MIC (Enterococcus faecium [1])	MIC (Enterococcus faecium [2])	MIC (Escherichia coli)	MIC (Staphylococcus aureus [3])	MIC (Enterococcus faecium [4])	MIC (Staphylococcus aureus [5])	MIC (Acinetobacter baumannii)	MIC (Klebsiella pneumoniae)
CC(C)C[C@@H](N)C(=O)N[C@H]1C(=O)N[C@@H](CC(N)=O)C(=O)N[C@H]2C(=O)N[C@H]3C(=O)N[C@H](C(=O)N[C@H](C(=O)NCc4ccc(CN)cc4)c4cc(O)cc(O)c4-c4cc3ccc4O)[C@H](O)c3ccc(c(Cl)c3)Oc3cc2cc(c3O[C@@H]2O[C@H](CO)[C@@H](O)[C@H](O)[C@H]2O[C@H]2C[C@](C)(N)[C@H](O)[C@H](C)O2)Oc2ccc(cc2Cl)[C@H]1O	64 µg/mL (≈ 41.2 µM)	128 µg/mL (≈ 82.4 µM)	16 µg/mL (≈ 10.3 µM)	1 µg/mL (≈ 0.644 µM)	64 µg/mL (≈ 41.2 µM)	1 µg/mL (≈ 0.644 µM)	64 µg/mL (≈ 41.2 µM)	
CC(C)C[C@H](C(=O)N[C@H]1C(=O)N[C@@H](CC(N)=O)C(=O)N[C@H]2C(=O)N[C@H]3C(=O)N[C@H](C(=O)N[C@H](C(=O)O)c4cc(O)cc(O)c4-c4cc3ccc4O)[C@H](O)c3ccc(c(Cl)c3)Oc3cc2cc(c3O[C@@H]2O[C@H](CO)[C@@H](O)[C@H](O)[C@H]2O[C@H]2C[C@](C)(N)[C@H](O)[C@H](C)O2)Oc2ccc(cc2Cl)[C@H]1O)N(C)Cc1ccc(-c2ccc(CN)cc2)cc1	64 µg/mL (≈ 38.9 µM)	64 µg/mL (≈ 38.9 µM)	> 128 µg/mL	1 µg/mL (≈ 0.608 µM)	64 µg/mL (≈ 38.9 µM)	8 µg/mL (≈ 4.86 µM)	> 128 µg/mL	> 128 µg/mL
CN[C@H](CC(C)C)C(=O)N[C@H]1C(=O)N[C@@H](CC(N)=O)C(=O)N[C@H]2C(=O)N[C@H]3C(=O)N[C@H](C(=O)N[C@H](C(=O)NCc4ccc(-c5ccc(CN)cc5)cc4)c4cc(O)cc(O)c4-c4cc3ccc4O)[C@H](O)c3ccc(c(Cl)c3)Oc3cc2cc(c3O[C@@H]2O[C@H](CO)[C@@H](O)[C@H](O)[C@H]2O[C@H]2C[C@](C)(N)[C@H](O)[C@H](C)O2)Oc2ccc(cc2Cl)[C@H]1O	8 µg/mL (≈ 4.87 µM)	8 µg/mL (≈ 4.87 µM)	16 µg/mL (≈ 9.74 µM)	≤ 0.063 µg/mL		1 µg/mL (≈ 0.608 µM)	32 µg/mL (≈ 19.5 µM)	> 128 µg/mL
CC(C)C[C@H](C(=O)N[C@H]1C(=O)N[C@@H](CC(N)=O)C(=O)N[C@H]2C(=O)N[C@H]3C(=O)N[C@H](C(=O)N[C@H](C(=O)O)c4cc(O)cc(O)c4-c4cc3ccc4O)[C@H](O)c3ccc(c(Cl)c3)Oc3cc2cc(c3O[C@@H]2O[C@H](CO)[C@@H](O)[C@H](O)[C@H]2O[C@H]2C[C@](C)(N)[C@H](O)[C@H](C)O2)Oc2ccc(cc2Cl)[C@H]1O)N(C)Cc1ccc(-c2ccc(CCNC(=N)N)cc2)cc1	32 µg/mL (≈ 18.8 µM)	32 µg/mL (≈ 18.8 µM)	> 128 µg/mL	2 µg/mL (≈ 1.18 µM)	32 µg/mL (≈ 18.8 µM)	4 µg/mL (≈ 2.35 µM)	> 128 µg/mL	> 128 µg/mL
CN[C@H](CC(C)C)C(=O)N[C@H]1C(=O)N[C@@H](CC(N)=O)C(=O)N[C@H]2C(=O)N[C@H]3C(=O)N[C@H](C(=O)N[C@H](C(=O)O)c4cc(O)cc(O)c4-c4cc3ccc4O)[C@H](O)c3ccc(c(Cl)c3)Oc3cc2cc(c3O[C@@H]2O[C@H](CO)[C@@H](O)[C@H](O)[C@H]2O[C@H]2C[C@](C)(NCc3ccc(-c4ccc(CNC(=N)N)cc4)cc3)[C@H](O)[C@H](C)O2)Oc2ccc(cc2Cl)[C@H]1O	4 µg/mL (≈ 2.37 µM)	4 µg/mL (≈ 2.37 µM)	64 µg/mL (≈ 37.9 µM)	0.125 µg/mL (≈ 0.0741 µM)		2 µg/mL (≈ 1.19 µM)	64 µg/mL (≈ 37.9 µM)	> 128 µg/mL
CN[C@H](CC(C)C)C(=O)N[C@H]1C(=O)N[C@@H](CC(N)=O)C(=O)N[C@H]2C(=O)N[C@H]3C(=O)N[C@H](C(=O)N[C@H](C(=O)NCCc4ccc(-c5ccc(CN)cc5)cc4)c4cc(O)cc(O)c4-c4cc3ccc4O)[C@H](O)c3ccc(c(Cl)c3)Oc3cc2cc(c3O[C@@H]2O[C@H](CO)[C@@H](O)[C@H](O)[C@H]2O[C@H]2C[C@](C)(N)[C@H](O)[C@H](C)O2)Oc2ccc(cc2Cl)[C@H]1O	8 µg/mL (≈ 4.83 µM)	8 µg/mL (≈ 4.83 µM)	16 µg/mL (≈ 9.65 µM)	0.25 µg/mL (≈ 0.151 µM)		1 µg/mL (≈ 0.603 µM)	32 µg/mL (≈ 19.3 µM)	> 128 µg/mL
CC(C)C[C@H](C(=O)N[C@H]1C(=O)N[C@@H](CC(N)=O)C(=O)N[C@H]2C(=O)N[C@H]3C(=O)N[C@H](C(=O)N[C@H](C(=O)O)c4cc(O)cc(O)c4-c4cc3ccc4O)[C@H](O)c3ccc(c(Cl)c3)Oc3cc2cc(c3O[C@@H]2O[C@H](CO)[C@@H](O)[C@H](O)[C@H]2O[C@H]2C[C@](C)(N)[C@H](O)[C@H](C)O2)Oc2ccc(cc2Cl)[C@H]1O)N(C)Cc1ccc(-c2ccc(CNC(=N)N)cc2)cc1	32 µg/mL (≈ 19 µM)	32 µg/mL (≈ 19 µM)	> 128 µg/mL	1 µg/mL (≈ 0.593 µM)	32 µg/mL (≈ 19 µM)	4 µg/mL (≈ 2.37 µM)	> 128 µg/mL	> 128 µg/mL
CC(C)C[C@@H](N)C(=O)N[C@H]1C(=O)N[C@@H](CC(N)=O)C(=O)N[C@H]2C(=O)N[C@H]3C(=O)N[C@H](C(=O)N[C@H](C(=O)NCc4ccc(CNC(=N)N)cc4)c4cc(O)cc(O)c4-c4cc3ccc4O)[C@H](O)c3ccc(c(Cl)c3)Oc3cc2cc(c3O[C@@H]2O[C@H](CO)[C@@H](O)[C@H](O)[C@H]2O[C@H]2C[C@](C)(N)[C@H](O)[C@H](C)O2)Oc2ccc(cc2Cl)[C@H]1O	8 µg/mL (≈ 5.01 µM)	16 µg/mL (≈ 10 µM)	8 µg/mL (≈ 5.01 µM)	0.25 µg/mL (≈ 0.157 µM)	16 µg/mL (≈ 10 µM)	1 µg/mL (≈ 0.627 µM)	32 µg/mL (≈ 20.1 µM)	
CN[C@H](CC(C)C)C(=O)N[C@H]1C(=O)N[C@@H](CC(N)=O)C(=O)N[C@H]2C(=O)N[C@H]3C(=O)N[C@H](C(=O)N[C@H](C(=O)O)c4cc(O)cc(O)c4-c4cc3ccc4O)[C@H](O)c3ccc(c(Cl)c3)Oc3cc2cc(c3O[C@@H]2O[C@H](CO)[C@@H](O)[C@H](O)[C@H]2O[C@H]2C[C@](C)(NCc3ccc(-c4ccc(CCNC(=N)N)cc4)cc3)[C@H](O)[C@H](C)O2)Oc2ccc(cc2Cl)[C@H]1O	4 µg/mL (≈ 2.35 µM)	8 µg/mL (≈ 4.7 µM)	64 µg/mL (≈ 37.6 µM)	0.125 µg/mL (≈ 0.0735 µM)		2 µg/mL (≈ 1.18 µM)	64 µg/mL (≈ 37.6 µM)	> 128 µg/mL
CN[C@H](CC(C)C)C(=O)N[C@H]1C(=O)N[C@@H](CC(N)=O)C(=O)N[C@H]2C(=O)N[C@H]3C(=O)N[C@H](C(=O)N[C@H](C(=O)NCc4ccc(-c5ccc(CCN)cc5)cc4)c4cc(O)cc(O)c4-c4cc3ccc4O)[C@H](O)c3ccc(c(Cl)c3)Oc3cc2cc(c3O[C@@H]2O[C@H](CO)[C@@H](O)[C@H](O)[C@H]2O[C@H]2C[C@](C)(N)[C@H](O)[C@H](C)O2)Oc2ccc(cc2Cl)[C@H]1O	4 µg/mL (≈ 2.41 µM)	8 µg/mL (≈ 4.83 µM)	16 µg/mL (≈ 9.65 µM)	1 µg/mL (≈ 0.603 µM)	8 µg/mL (≈ 4.83 µM)	1 µg/mL (≈ 0.603 µM)	32 µg/mL (≈ 19.3 µM)	> 128 µg/mL
CN[C@H](CC(C)C)C(=O)N[C@H]1C(=O)N[C@@H](CC(N)=O)C(=O)N[C@H]2C(=O)N[C@H]3C(=O)N[C@H](C(=O)N[C@H](C(=O)O)c4cc(O)cc(O)c4-c4cc3ccc4O)[C@H](O)c3ccc(c(Cl)c3)Oc3cc2cc(c3O[C@@H]2O[C@H](CO)[C@@H](O)[C@H](O)[C@H]2O[C@H]2C[C@](C)(NCc3ccc(-c4ccc(CCN)cc4)cc3)[C@H](O)[C@H](C)O2)Oc2ccc(cc2Cl)[C@H]1O	8 µg/mL (≈ 4.82 µM)	16 µg/mL (≈ 9.65 µM)	64 µg/mL (≈ 38.6 µM)	0.25 µg/mL (≈ 0.151 µM)		2 µg/mL (≈ 1.21 µM)	64 µg/mL (≈ 38.6 µM)	> 128 µg/mL
CN[C@H](CC(C)C)C(=O)N[C@H]1C(=O)N[C@@H](CC(N)=O)C(=O)N[C@H]2C(=O)N[C@H]3C(=O)N[C@H](C(=O)N[C@H](C(=O)O)c4cc(O)cc(O)c4-c4cc3ccc4O)[C@H](O)c3ccc(c(Cl)c3)Oc3cc2cc(c3O[C@@H]2O[C@H](CO)[C@@H](O)[C@H](O)[C@H]2O[C@H]2C[C@](C)(NCc3ccc(-c4ccc(CN)cc4)cc3)[C@H](O)[C@H](C)O2)Oc2ccc(cc2Cl)[C@H]1O	16 µg/mL (≈ 9.73 µM)	16 µg/mL (≈ 9.73 µM)	64 µg/mL (≈ 38.9 µM)	0.25 µg/mL (≈ 0.152 µM)		2 µg/mL (≈ 1.22 µM)	128 µg/mL (≈ 77.8 µM)	> 128 µg/mL
CC(C)C[C@H](C(=O)N[C@H]1C(=O)N[C@@H](CC(N)=O)C(=O)N[C@H]2C(=O)N[C@H]3C(=O)N[C@H](C(=O)N[C@H](C(=O)O)c4cc(O)cc(O)c4-c4cc3ccc4O)[C@H](O)c3ccc(c(Cl)c3)Oc3cc2cc(c3O[C@@H]2O[C@H](CO)[C@@H](O)[C@H](O)[C@H]2O[C@H]2C[C@](C)(N)[C@H](O)[C@H](C)O2)Oc2ccc(cc2Cl)[C@H]1O)N(C)Cc1ccc(-c2ccc(CCN)cc2)cc1	64 µg/mL (≈ 38.6 µM)	64 µg/mL (≈ 38.6 µM)	> 128 µg/mL	1 µg/mL (≈ 0.603 µM)	64 µg/mL (≈ 38.6 µM)	8 µg/mL (≈ 4.82 µM)	> 128 µg/mL	> 128 µg/mL
